We go through 17 compounds from patent publication US12410160B2 (Gilead Sciences, Inc., priority 2021, dated 2025).

Like-named read-outs stand apart in the source and are kept apart here.

For assay [1], the system named is HepG2 cells. The assay can be described thus: F1P Cell-Based Assay (EC50), 13C6-fructose-1-phosphate in HepG2 cells (cell culture medium or 50% human plasma). The conditions noted are these: Homo sapiens.
Assay [2] has as its target human KHK-A (Homo sapiens (Human), UniProt P50053). Nature of the assay: KHK Biochemical Assay (IC50), ADP-Glo, KHK-A. As to conditions: average of at least two separate assays. In outline: (§1)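 His-tagged enzyme expressed in BL21 (DE3), Ni-NTA purified. Compounds, serially diluted 1:3 in DMSO, pre-incubated 30 min with enzyme in 50 mM Hepes pH 7.4, 140 mM KCl, 5 mM MgCl2, 0.01% Triton-X, then ATP and fructose added; 4 h at room temperature. ADP formation read by ADP-Glo luminescence.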

The target of assay [3] is human KHK-C (Homo sapiens (Human), UniProt P50053). The assay can be described thus: KHK Biochemical Assay (IC50), ADP-Glo, KHK-C. As to conditions: average of at least two separate assays. In outline: as §1
Chain of human KHK-C (P50053 whole entry): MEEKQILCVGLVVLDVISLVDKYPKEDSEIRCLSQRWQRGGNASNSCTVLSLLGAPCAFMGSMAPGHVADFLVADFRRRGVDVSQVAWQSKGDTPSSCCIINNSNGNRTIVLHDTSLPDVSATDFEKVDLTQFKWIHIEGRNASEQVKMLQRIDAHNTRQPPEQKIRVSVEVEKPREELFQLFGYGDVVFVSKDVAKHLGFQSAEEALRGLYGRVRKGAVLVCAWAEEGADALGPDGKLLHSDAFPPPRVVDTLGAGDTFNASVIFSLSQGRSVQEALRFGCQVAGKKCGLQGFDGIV
In general terms: In ADP-Glo the light output rises with the ADP produced.

Assay [4] has as its target KHK-C expressed in NRK-52E cells (Homo sapiens (Human), UniProt P50053). The assay can be described thus: KHK-C Cell-based Assay (EC50), NRK CTG, fructose-mediated ATP-depletion.
Where [5] appears, read: HepG2, HepG2 cells, 50% human plasma, read-out: F1P 50% HP EC50.
[6] abbreviates: HepG2, read-out: F1P 10% FBS EC50, HepG2 cells, cell culture medium (10% FBS).

Chain of human KHK-A (P50053 other isoform, or with tags, fused parts or gaps): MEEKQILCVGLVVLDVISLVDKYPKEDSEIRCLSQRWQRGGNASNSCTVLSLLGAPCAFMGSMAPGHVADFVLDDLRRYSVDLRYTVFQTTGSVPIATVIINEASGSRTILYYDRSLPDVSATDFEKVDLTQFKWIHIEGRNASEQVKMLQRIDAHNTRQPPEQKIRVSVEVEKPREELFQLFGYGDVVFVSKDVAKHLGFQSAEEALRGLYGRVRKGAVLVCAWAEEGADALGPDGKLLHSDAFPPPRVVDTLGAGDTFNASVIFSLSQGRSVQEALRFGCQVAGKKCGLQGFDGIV
Chain of KHK-C expressed in NRK-52E cells (P50053 whole entry): as the sequence (P50053 whole entry) above

As to `C[C@H]1C[C@H](C)N1c1nc(-c2ccc(C3(N)COC3)cc2)c2c(n1)C(F)(F)CC2` [Example 504, 3-(4-(2-((2S,4S)-2,4-dimethylazetidin-1-yl)-7,7-difluoro-6,7-dihydro-5H-cyclopenta[d]pyrimidin-4-yl)phenyl)oxetan-3-amine], the EC50 (in general, the concentration giving half of the maximal effect) in assay [1] (setting [5]) worked out at 34.7 nM; in assay [1] (setting [6]), 9.9 nM; in assay [4] it was 11.5 nM. The results for the IC50 in assay [2] and in assay [3] were 10.1 nM and 2.3 nM, respectively.
The matching figures for `COc1ccc(-c2nc(N3C[C@@H](F)[C@@H]3C)nc3c2CCC3(F)F)cc1[S@@](C)(=N)=O` [Example 561, (S)-(5-(7,7-difluoro-2-((2S,3R)-3-fluoro-2-methylazetidin-1-yl)-6,7-dihydro-5H-cyclopenta[d]pyrimidin-4-yl)-2-methoxyphenyl)(imino)(methyl)-λ^6-sulfanone]: 24.6 nM, 3.5 nM, 8 nM, 0.2 nM and 1.1 nM.
In the same order, the values of `COc1ccc(-c2nc(N3C[C@H](F)[C@@H]3C)nc3c2CCC3(F)F)cc1[S@@](C)(=N)=O` [Example 562, (S)-(5-(7,7-difluoro-2-((2S,3S)-3-fluoro-2-methylazetidin-1-yl)-6,7-dihydro-5H-cyclopenta[d]pyrimidin-4-yl)-2-methoxyphenyl)(imino)(methyl)-λ^6-sulfanone] are 3.6 nM, 1.1 nM, 5.8 nM, 0.3 nM and 1.4 nM.
In the same order, the values of `COc1ccc(-c2nc(N3CC(F)(F)[C@@H]3C)nc3c2CCC3(F)F)cc1[S@@](C)(=N)=O` [Example 563, (S)-(5-(2-((S)-3,3-difluoro-2-methylazetidin-1-yl)-7,7-difluoro-6,7-dihydro-5H-cyclopenta[d]pyrimidin-4-yl)-2-methoxyphenyl)(imino)(methyl)-λ^6-sulfanone] are 6.7 nM, 0.6 nM, 5.1 nM, 0.2 nM and 1.7 nM.
`C[C@H]1[C@H](O)CN1c1nc(-c2ccc(OC(F)(F)F)c(S(C)(=N)=O)c2)c2c(n1)C(F)(F)CC2` (stereo partly drawn) [Example 564, (5-(7,7-difluoro-2-((2S,3R)-3-hydroxy-2-methylazetidin-1-yl)-6,7-dihydro-5H-cyclopenta[d]pyrimidin-4-yl)-2-(trifluoromethoxy)phenyl)(imino)(methyl)-λ^6-sulfanone]: the EC50 in assay [1] (setting [5]) was found to be 142 nM; in assay [1] (setting [6]) it was 38.5 nM; in assay [4], 98.1 nM. For the same compound, the IC50 – broadly, the point on the concentration scale where inhibition reaches its midpoint – was determined as 11.6 nM in assay [2] and 24.4 nM in assay [3].
The matching figures for `C[C@H]1[C@H](O)CN1c1nc(-c2ccc3c(c2)OCC32NC(=O)OC2(C)C)c2c(n1)C(F)(F)CC2` (stereo partly drawn) [Example 565, 6-(7,7-difluoro-2-((2S,3R)-3-hydroxy-2-methylazetidin-1-yl)-6,7-dihydro-5H-cyclopenta[d]pyrimidin-4-yl)-5′,5′-dimethyl-2H-spiro[benzofuran-3,4′-oxazolidin]-2′-one]: 204 nM, 50.3 nM, 19.3 nM, 32.8 nM and 2.6 nM.
For `C[C@H]1[C@H](O)CN1c1nc(-c2ccc3c(c2)CC[C@]32NC(=O)N(CCO)C2=O)c2c(n1)C(F)(F)CC2` [Example 686, (58)-5′-[7,7-difluoro-2-[(2S,3R)-3-hydroxy-2-methyl-azetidin-1-yl]-5,6-dihydrocyclopenta[d]pyrimidin-4-yl]-3-(2-hydroxyethyl)spiro[imidazolidine-5,1′-indane]-2,4-dione], the figures for the EC50 in assay [1] (setting [5]), in assay [1] (setting [6]) and in assay [4] were 71 nM, 67.8 nM and 6.4 nM, respectively. Further, the IC50 in assay [2] is 16.7 nM; in assay [3], 0.1 nM.
In the same order, the values of `CCCN1C(=O)NC2(COc3cc(-c4nc(N5C[C@@H](O)[C@@H]5C)nc5c4CCC5(F)F)ccc32)C1=O` (stereo partly drawn) [Example 693, 6-[7,7-difluoro-2-[(2S,3R)-3-hydroxy-2-methyl-azetidin-1-yl]-5,6-dihydroeyelopenta[d]pyrimidin-4-yl]-3′-propyl-spiro[2H-benzofuran-3,5′-imidazolidine]-2′,4′-dione] are 141 nM, 22.4 nM, 6.4 nM, 47.2 nM and 0.2 nM.
The matching figures for `C[C@H]1[C@H](O)CN1c1nc(-c2ccc3c(c2)OCC32NC(=O)N(C3COC3)C2=O)c2c(n1)C(F)(F)CC2` (stereo partly drawn) [Example 694, 6-[7,7-difluoro-2-[(2S,3R)-3-hydroxy-2-methyl-azetidin-1-yl]-5,6-dihydroeyelopenta[d]pyrimidin-4-yl]-3′-(oxetan-3-yl)spiro[2H-benzofuran-3,5′-imidazolidine]-2′,4′-dione]: 109 nM, 54.3 nM, 17.2 nM, 24.5 nM and 0.4 nM.
In the same order, the values of `C[C@H]1[C@H](O)CN1c1nc(-c2ccc3c(c2)OCC32CN(C)C(=O)N2)c2c(n1)C(F)(F)CC2` (stereo partly drawn) [Example 695, 6-[7,7-difluoro-2-[(2S,3R)-3-hydroxy-2-methyl-azetidin-1-yl]-5,6-dihydroeyelopenta[d]pyrimidin-4-yl]-1′-methyl-spiro[2H-benzofuran-3,4′-imidazolidine]-2′-one] are 213 nM, 27.1 nM, 10.3 nM, 16.2 nM and 0.5 nM.
Consider `C[C@H]1[C@H](O)CN1c1nc(-c2ccc3c(c2)OCC32NC(=O)N(CC(F)(F)F)C2=O)c2c(n1)C(F)(F)CC2` (stereo partly drawn) [Example 699, 6-[7,7-difluoro-2-[(2S,3R)-3-hydroxy-2-methyl-azetidin-1-yl]-5,6-dihydrocyclopenta[d]pyrimidin-4-yl]-3′-(2,2,2-trifluoroethyl)spiro[2H-benzofuran-3,5′-imidazolidine]-2′,4′-dione], for which the EC50 in assay [1] (setting [5]) turned out to be 492 nM; in assay [1] (setting [6]) it was 85.2 nM; in assay [4] it was 32.8 nM. The IC50 in assay [2] came out at 88.7 nM; in assay [3], 0.3 nM.
On to `C[C@H]1[C@H](O)CN1c1nc(-c2ccc3c(c2)OCC32CN(CCO)C(=O)N2)c2c(n1)C(F)(F)CC2` (stereo partly drawn) [Example 700, 6-[7,7-difluoro-2-[(2S,3R)-3-hydroxy-2-methyl-azetidin-1-yl]-5,6-dihydrocyclopenta[d]pyrimidin-4-yl]-1′-(2-hydroxyethyl)spiro[2H-benzofuran-3,4′-imidazolidine]-2′-one], for which the EC50 in assay [1] (setting [5]) turned out to be 250 nM; in assay [1] (setting [6]), 163 nM; in assay [4], 37.3 nM. In addition, the half-inhibitory concentration (IC50) in assay [2] came to 16.1 nM; in assay [3], 0.2 nM.
The matching figures for `COc1c(Cl)cc(-c2nc(N3C[C@@H](O)[C@@H]3C)nc3c2CCC3(F)F)cc1S(C)(=N)=O` (stereo partly drawn) [Example 717, (3-chloro-5-(7,7-difluoro-2-((2S,3R)-3-hydroxy-2-methylazetidin-1-yl)-6,7-dihydro-5H-cyclopenta[d]pyrimidin-4-yl)-2-methoxyphenyl)(imino)(methyl)-λ^6-sulfanone]: above 500 nM, above 500 nM, above 500 nM, above 100 nM and above 100 nM.
The matching figures for `Cc1ccc(-c2nc(N3C[C@@H](O)[C@@H]3C)nc3c2CCC3(F)F)cc1S(C)(=N)=O` (stereo partly drawn) [Example 718, (5-(7,7-difluoro-2-((2S,3R)-3-hydroxy-2-methylazetidin-1-yl)-6,7-dihydro-5H-cyclopenta[d]pyrimidin-4-yl)-2-methylphenyl)(imino)(methyl)-λ^6-sulfanone]: 23.7 nM, 11.5 nM, 17.6 nM, 5.1 nM and 4.2 nM.
In the same order, the values of `C[C@H]1[C@H](O)CN1c1nc(-c2ccc3c(c2)OCCNC3)c2c(n1)C(F)(F)CC2` [Example 760, (2S,3R)-1-[7,7-difluoro-4-(2,3,4,5-tetrahydro-1,4-benzoxazepin-8-yl)-5,6-dihydrocyclopenta[d]pyrimidin-2-yl]-2-methyl-azetidin-3-ol] are 1.4 nM, 1.1 nM, 1.4 nM, 6 nM and 1.7 nM.
For `C[C@H]1[C@H](O)CN1c1nc(-c2ccc(C#N)c(S(C)(=N)=O)c2)c2c(n1)C(F)(F)CC2` (stereo partly shown) [Example 798], the EC50 is 93.5 nM in assay [1] (setting [5]), 120 nM in assay [1] (setting [6]) and above 500 nM in assay [4]. In addition, the IC50 was 70.1 nM in assay [2] (ADP-Glo) and 51.9 nM in assay [3] (ADP-Glo).
The matching figures for `C[C@H]1[C@H](O)CN1c1nc(-c2ccc3c(c2)OCC32NC(=O)N(C)C2=O)c2c(n1)C(F)(F)CC2` (stereo partly drawn) [Example 819, 6-[7,7-difluoro-2-[(2S,3R)-3-hydroxy-2-methyl-azetidin-1-yl]-5,6-dihydrocyclopenta[d]pyrimidin-4-yl]-3′-methyl-spiro[2H-benzofuran-3,5′-imidazolidine]-2′,4′-dione]: 10.4 nM, 2.9 nM, 2 nM, 14.6 nM and 0.2 nM.
